Results as given in ChEMBL document CHEMBL3885881, “DrugMatrix”.

Organism: Rattus norvegicus
Assay: DrugMatrix - Regimen: Daily Repeat
Type: toxicity, organism-based, Sprague-Dawley
Set-up: regimen Daily Repeat, gender Male, age 6-8 weeks
Settings: in vivo, po, route oral GAVAGE, vehicle 100 % WATER; for ABSOLUTE BASOPHIL / ABSOLUTE EOSINOPHIL / ABSOLUTE LYMPHOCYTE / ABSOLUTE MONOCYTE / ABSOLUTE SEGMENTED NEUTROPHIL / BASOPHIL / EOSINOPHIL / ERYTHROCYTE COUNT / HEMATOCRIT / HEMOGLOBIN / LEUKOCYTE COUNT / LYMPHOCYTE / MEAN CORPUSCULAR HEMOGLOBIN / MEAN CORPUSCULAR HEMOGLOBIN CONCENTRATION / MEAN CORPUSCULAR VOLUME / MONOCYTE / NEUTROPHIL / NUCLEATED RED BLOOD CELLS / PLATELET COUNT: tissue Blood; for ALANINE AMINOTRANSFERASE / ALBUMIN / ALKALINE PHOSPHATASE / ASPARTATE AMINOTRANSFERASE / BLOOD UREA NITROGEN / CARBON DIOXIDE / CHLORIDE / CHOLESTEROL / CREATINE PHOSPHOKINASE / CREATININE / GLUCOSE / LACTATE DEHYDROGENASE / LIPASE / PHOSPHORUS / SODIUM / TOTAL BILIRUBIN / TOTAL PROTEIN / URIC ACID: tissue Plasma
[1] = 0 mg/kg, 72 h, dose level Control, time 3 day
[2] = 0 mg/kg, 120 h, dose level Control, time 5 day
[3] = 200 mg/kg, 72 h, dose level Low, time 3 day

CC1(C)S[C@@H]2[C@H](NC(=O)[C@H](N)c3ccc(O)cc3)C(=O)N2[C@H]1C(=O)O [AMOXICILLIN]
ABSOLUTE BASOPHIL [1]: 0 CELLS/uL
ABSOLUTE EOSINOPHIL [1]: 25 CELLS/uL
ABSOLUTE LYMPHOCYTE [1]: 14357 CELLS/uL
ABSOLUTE MONOCYTE [1]: 456.33 CELLS/uL
ABSOLUTE SEGMENTED NEUTROPHIL [1]: 1461.67 CELLS/uL
BASOPHIL [1]: 0%
EOSINOPHIL [1]: 0.17%
ERYTHROCYTE COUNT [1]: 5.85 x10E6/uL
HEMATOCRIT [1]: 37.62%
HEMOGLOBIN [1]: 13.87 G/DL
LEUKOCYTE COUNT [1]: 16.3 x10E3/uL
LYMPHOCYTE [1]: 88%
MEAN CORPUSCULAR HEMOGLOBIN [1]: 23.68 pg
MEAN CORPUSCULAR HEMOGLOBIN CONCENTRATION [1]: 36.88 G/DL
MEAN CORPUSCULAR VOLUME [1]: 64.23 fL
MONOCYTE [1]: 2.83%
NEUTROPHIL [1]: 9%
NUCLEATED RED BLOOD CELLS [1]: 0 /100WBC
PLATELET COUNT [1]: 1125.33 x10E3/uL
ALANINE AMINOTRANSFERASE [1]: 49.67 u/L
ALBUMIN [1]: 4.23 G/DL
ALKALINE PHOSPHATASE [1]: 400.83 u/L
ASPARTATE AMINOTRANSFERASE [1]: 89.17 u/L
BLOOD UREA NITROGEN [1]: 16 mg/dL
CARBON DIOXIDE [1]: 31.83 mmol/L
CHLORIDE [1]: 99 MEQ/L
CHOLESTEROL [1]: 76 mg/dL
CREATINE PHOSPHOKINASE [1]: 777.67 u/L
CREATININE [1]: 0.22 mg/dL
GLUCOSE [1]: 158.33 mg/dL
LACTATE DEHYDROGENASE [1]: 186.17 u/L
LIPASE [1]: 9.33 u/L
PHOSPHORUS [1]: 12.95 mg/dL
SODIUM [1]: 141.53 MEQ/L
TOTAL BILIRUBIN [1]: 0.18 mg/dL
TOTAL PROTEIN [1]: 6.08 G/DL
URIC ACID [1]: 1.77 mg/dL
ABSOLUTE BASOPHIL [2]: 0 CELLS/uL
ABSOLUTE EOSINOPHIL [2]: 0 CELLS/uL
ABSOLUTE LYMPHOCYTE [2]: 8994.5 CELLS/uL
ABSOLUTE MONOCYTE [2]: 122.33 CELLS/uL
ABSOLUTE SEGMENTED NEUTROPHIL [2]: 666.5 CELLS/uL
BASOPHIL [2]: 0%
EOSINOPHIL [2]: 0%
ERYTHROCYTE COUNT [2]: 5.74 x10E6/uL
HEMATOCRIT [2]: 35.17%
HEMOGLOBIN [2]: 13.28 G/DL
LEUKOCYTE COUNT [2]: 9.78 x10E3/uL
LYMPHOCYTE [2]: 92.33%
MEAN CORPUSCULAR HEMOGLOBIN [2]: 23.15 pg
MEAN CORPUSCULAR HEMOGLOBIN CONCENTRATION [2]: 37.8 G/DL
MEAN CORPUSCULAR VOLUME [2]: 61.27 fL
MONOCYTE [2]: 1.33%
NEUTROPHIL [2]: 6.33%
NUCLEATED RED BLOOD CELLS [2]: 0 /100WBC
PLATELET COUNT [2]: 1117 x10E3/uL
ALANINE AMINOTRANSFERASE [2]: 47.83 u/L
ALBUMIN [2]: 4.33 G/DL
ALKALINE PHOSPHATASE [2]: 414.5 u/L
ASPARTATE AMINOTRANSFERASE [2]: 77.5 u/L
BLOOD UREA NITROGEN [2]: 17 mg/dL
CARBON DIOXIDE [2]: 32.33 mmol/L
CHLORIDE [2]: 99.33 MEQ/L
CHOLESTEROL [2]: 76.33 mg/dL
CREATINE PHOSPHOKINASE [2]: 363.67 u/L
CREATININE [2]: 0.25 mg/dL
GLUCOSE [2]: 173.5 mg/dL
LACTATE DEHYDROGENASE [2]: 129.33 u/L
LIPASE [2]: 9.17 u/L
PHOSPHORUS [2]: 11.52 mg/dL
SODIUM [2]: 143.85 MEQ/L
TOTAL BILIRUBIN [2]: 0.2 mg/dL
TOTAL PROTEIN [2]: 6.43 G/DL
URIC ACID [2]: 0.97 mg/dL
ABSOLUTE BASOPHIL [3]: 0 CELLS/uL
ABSOLUTE EOSINOPHIL [3]: 109.67 CELLS/uL
ABSOLUTE LYMPHOCYTE [3]: 14631 CELLS/uL
ABSOLUTE MONOCYTE [3]: 211.33 CELLS/uL
ABSOLUTE SEGMENTED NEUTROPHIL [3]: 914.67 CELLS/uL
BASOPHIL [3]: 0%
EOSINOPHIL [3]: 0.67%
ERYTHROCYTE COUNT [3]: 5.96 x10E6/uL
HEMATOCRIT [3]: 38.03%
HEMOGLOBIN [3]: 14 G/DL
LEUKOCYTE COUNT [3]: 15.87 x10E3/uL
LYMPHOCYTE [3]: 92.33%
MEAN CORPUSCULAR HEMOGLOBIN [3]: 23.53 pg
MEAN CORPUSCULAR HEMOGLOBIN CONCENTRATION [3]: 36.8 G/DL
MEAN CORPUSCULAR VOLUME [3]: 63.87 fL
MONOCYTE [3]: 1.33%
NEUTROPHIL [3]: 5.67%
NUCLEATED RED BLOOD CELLS [3]: 0 /100WBC
PLATELET COUNT [3]: 1509.33 x10E3/uL
ALANINE AMINOTRANSFERASE [3]: 49.33 u/L
ALBUMIN [3]: 4.4 G/DL
ALKALINE PHOSPHATASE [3]: 350 u/L
ASPARTATE AMINOTRANSFERASE [3]: 82.33 u/L
BLOOD UREA NITROGEN [3]: 15.33 mg/dL
CARBON DIOXIDE [3]: 31.33 mmol/L
CHLORIDE [3]: 99.33 MEQ/L
CHOLESTEROL [3]: 96.33 mg/dL
CREATINE PHOSPHOKINASE [3]: 449.67 u/L
CREATININE [3]: 0.21 mg/dL
GLUCOSE [3]: 146 mg/dL
LACTATE DEHYDROGENASE [3]: 163.67 u/L
LIPASE [3]: 10.33 u/L
PHOSPHORUS [3]: 11.9 mg/dL
SODIUM [3]: 142.1 MEQ/L
TOTAL BILIRUBIN [3]: 0.2 mg/dL
TOTAL PROTEIN [3]: 6.37 G/DL
URIC ACID [3]: 2.03 mg/dL
